Experimental data as given in BindingDB's records for doi:10.1111/j.1432-1033.1994.00489.x (Universit&Eacute, 1994).

Target: Histamine H1 receptor (Cavia porcellus, UniProt P31389)
Sequence (P31389 whole entry): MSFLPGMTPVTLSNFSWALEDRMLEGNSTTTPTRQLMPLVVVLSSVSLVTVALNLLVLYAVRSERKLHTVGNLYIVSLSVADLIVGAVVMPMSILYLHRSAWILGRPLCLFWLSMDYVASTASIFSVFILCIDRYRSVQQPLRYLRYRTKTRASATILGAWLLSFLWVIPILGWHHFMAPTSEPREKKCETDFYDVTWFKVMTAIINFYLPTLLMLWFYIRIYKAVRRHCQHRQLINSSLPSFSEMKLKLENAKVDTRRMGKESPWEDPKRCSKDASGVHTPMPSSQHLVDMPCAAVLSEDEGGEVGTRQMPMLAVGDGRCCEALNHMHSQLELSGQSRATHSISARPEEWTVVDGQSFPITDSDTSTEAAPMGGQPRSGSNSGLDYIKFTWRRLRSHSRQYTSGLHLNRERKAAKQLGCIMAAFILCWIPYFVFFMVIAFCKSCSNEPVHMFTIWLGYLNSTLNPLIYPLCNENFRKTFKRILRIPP

SMILES	Ki [nM]
O=C(O)COCCN1CCN(C(c2ccccc2)c2ccc(Cl)cc2)CC1 (configuration not stated)	12.6
Cc1ccc(/C(=C\CN2CCCC2)c2ccccn2)cc1 [Actahist]	0.31
